The values that follow come from PMC3510080, “Identification of Compounds with Anti-Proliferative Activity against Trypanosoma brucei brucei Strain 427 by a Whole Cell Viability Based HTS Campaign” (PLoS Neglected Tropical Diseases, 2012).

The subject of test [1] is T.b. rhodesiense STIB900. The test can be described thus: T. b. rhodesiense STIB900 assay (resazurin); SI versus L6 cells. Type of test: cell-based, Trypanosoma brucei rhodesiense. On the procedure:
(§1) L6 rat skeletal myoblasts, [29] were purchased from the American Type Culture Collection (ATCC, Rockville, MD, USA; ATCC number CRL 1458). This cell line was used for cytotoxicity testing to calculate an SI against T.b. rhodesiense and screened alongside the T.b. rhodesiense, P. falciparum, T. cruzi and L. donovani assays. L6 were also the host cells for the T. cruzi assay. Assays were performed in 96-well microtiter plates, each well containing 100 µl of RPMI 1640 medium supplemented with 1% L-glutamine (200 mM), 10% FCS, and 4000 L6 cells. Serial drug dilutions of eleven 3-fold dilution steps covering a range from 100 to 0.002 µg/ml were prepared. After 70 hours of incubation the plates were inspected under an inverted microscope to assure growth of the controls and sterile conditions. Ten µl of resazurin solution (resazurin, 12.5 mg in 100 ml double-distilled water) was then added to each well and the plates incubated for another 2 hours. Then the plates were read with a Spectramax Gemini XS microplate fluorometer (Molecular Devices Cooperation, Sunnyvale, CA, USA) using an excitation wavelength of 536 nm and an emission wavelength of 588 nm. Data was analysed using the microplate reader software Softmax Pro (Molecular Devices, USA). Podophyllotoxin was used as a positive control in the assay.
T.b. rhodesiense STIB900 stock was isolated in 1982 from a human patient in Tanzania and after several mouse passages cloned and adapted to axenic culture conditions. Fifty microliters of Minimum Essential Medium (MEM) supplemented with 25 mM HEPES, 1 g/l additional glucose, 1% MEM non-essential amino acids (100×), 0.2 mM 2-mercaptoethanol, 1 mM Na-pyruvate and 15% heat inactivated horse serum was added to each well of a 96-well microtiter plate. Serial drug dilutions of eleven 3-fold dilution steps covering a range from 100 to 0.002 µg/ml were prepared. Four thousand bloodstream form cells of T.b. rhodesiense STIB 900 in 50 µl were added to each well and the plate incubated at 37°C under a 5% CO2 atmosphere for 70 hours. Ten microlitres of resazurin solution (resazurin, 12.5 mg in 100 ml double-distilled water) was then added to each well and incubation continued for a further 2–4 hours. Plates were then read with a Spectramax Gemini XS microplate fluorometer (Molecular Devices, USA) using an excitation wavelength of 536 nm and an emission wavelength of 588 nm. Data was analysed using the microplate reader software Softmax Pro (Molecular Devices, USA). The drug melarsoprol was a positive control against T.b. rhodesiense.
A general note: The colour change of resazurin is a common sign of viable cells or microbes.

Test [2] relates to T. cruzi Tulahuen strain C2C4. The test can be described thus: T. cruzi Tulahuen strain C2C4 β-galactosidase assay; SI versus L6 cells. It counts as cell-based, Trypanosoma cruzi. On the procedure:
as §1
Rat skeletal myoblasts (L6 cells) were seeded in 96-well microtitre plates at 2000 cells/well in 100 µl RPMI 1640 medium with 10% FCS and 2 mM l-glutamine. After 24 hours the medium was removed and replaced by 100 µl per well containing 5000 trypomastigote forms of T. cruzi Tulahuen strain C2C4 containing the β-galactosidase (Lac Z) gene. After 48 hours the medium was removed from the wells and replaced by 100 µl fresh medium with or without a serial drug dilution of eleven 3-fold dilution steps covering a range from 100 to 0.002 µg/ml. After 96 hours of incubation the plates were inspected under an inverted microscope to assure growth of the controls and sterility. Then 50 µl of the substrate, containing chlorophenol red-β-D-galactopyranoside (CPRG) and Nonidet, was added to all wells. A colour reaction developed within 2–6 hours that could be read photometrically at 540 nm. Data were transferred into the graphic programme Softmax Pro (Molecular Devices, USA), which calculated IC50 values. The drug benznidazole was used as a positive standard in this assay.

Test [3] concerns P. falciparum K1 strain. The experiment in a line: P. falciparum 3H-hypoxanthine incorporation assay; SI versus L6 cells. Particulars: Plasmodium falciparum, K1, L6, read-out: Reference Compound Activity P.F (IC50). It counts as cell-based, Plasmodium falciparum. On the procedure:
as §1
Compounds dissolved in DMSO at 10 mg/ml were added to parasite cultures incubated in RPMI 1640 medium without hypoxanthine, supplemented with HEPES (5.94 g/l), NaHCO3 (2.1 g/l), neomycin (100 U/ml), Albumax (5 g/l) and washed human A^+ red blood cells at 2.5% haematocrit (0.3% parasitaemia). Serial drug dilutions of eleven 3-fold dilution steps covering a range from 100 to 0.002 µg/ml were prepared. The 96-well plates were incubated in a humidified atmosphere at 37°C; 4% CO2, 3% O2, 93% N2. After 48 hours, 50 µl of ^3H-hypoxanthine ( = 0.5 µCi) was added to each well of the plate. The plates were incubated for a further 24 hours under the same conditions. The plates were then harvested with a Betaplate cell harvester (Wallac, Zurich, Switzerland), and the red blood cells transferred onto a glass fibre filter then washed with distilled water. The dried filters were inserted into a plastic foil with 10 ml of scintillation fluid, and counted in a Betaplate liquid scintillation counter (Wallac, Zurich, Switzerland). IC50 values were calculated from sigmoidal inhibition curves using Microsoft Excel.

Test [4] concerns L. donovani strain MHOM/ET/67/L82 axenic amastigotes. The test can be described thus: L. donovani axenic amastigote fluorescence assay; SI versus L6 cells. It counts as cell-based, Leishmania donovani. On the procedure: as §1
Amastigotes of L. donovani strain MHOM/ET/67/L82 were grown in axenic culture at 37°C in SM medium at pH 5.4 supplemented with 10% heat-inactivated FCS under an atmosphere of 5% CO2 in air. One hundred µl of culture medium containing 10^5 amastigotes from axenic culture with or without a serial drug dilution were seeded in 96-well microtitre plates. Serial drug dilutions of eleven 3-fold dilution steps covering a range from 100 to 0.002 µg/ml were prepared. After 70 hours of incubation the plates were inspected under an inverted microscope to assure growth of the controls and sterile conditions. Ten µl of resazurin solution (12.5 mg resazurin dissolved in 100 ml distilled water) were then added to each well and the plates incubated for another 2 hours. The plates were then read with a Spectramax Gemini XS microplate fluorometer (Molecular Devices, USA) using an excitation wavelength of 536 nm and an emission wavelength of 588 nm. Data was analysed using the software Softmax Pro (Molecular Devices, USA). Decrease of fluorescence ( = inhibition) was expressed as percentage of the fluorescence of control cultures and plotted against the drug concentrations. From the sigmoidal inhibition curves the IC50 values were calculated. Miltefosine served as a known drug control in this assay.

Where only a bound is given, the exact number is not on record here.

Take `Nc1nc(N)nc(Nc2ccc([As]3SCC(CO)S3)cc2)n1` (stereo not shown) [Melarsoprol, melarsoprol, reference compound]: the IC50 (usually the midpoint of a concentration-inhibition curve) in test [1] (Trypanosoma brucei, L6, read-out: Reference Compound Activity T.R (IC50)) turned out to be 6.28 ± 1.78 nM. The “Selectivity Index T.R” value in test [1] (relative to L6 cells) is recorded as 2915.
In the case of `O=C(Cn1ccnc1[N+](=O)[O-])NCc1ccccc1` [Benznidazole, benznidazole, reference compound], the IC50 in test [2] (Trypanosoma cruzi, TULAHUEN, L6, positive standard, read-out: Reference Compound Activity T.C (IC50)) was found to be 1680 ± 1930 nM. The “Selectivity Index T.C” value in test [2] (relative to L6 cells) is more than 206.
As for `CCN(CC)CCCC(C)Nc1ccnc2cc(Cl)ccc12` (stereo not shown) [Chloroquine, reference compound], the IC50 in test [3] came out at 164 ± 24.7 nM.
Regarding `CCCCCCCCCCCCCCCCOP(=O)([O-])OCC[N+](C)(C)C` [Miltefosine, reference compound], the IC50 in test [4] (Leishmania donovani, L6, known drug control, read-out: Reference Compound Activity L.D (IC50)) is 365 ± 93.7 nM. Besides, the “Selectivity Index L.D” value in test [4] (relative to L6 cells) stood at 392.
